Source: publication PMC6802730, “In Vitro Performance of Published Glypican 3-Targeting Peptides TJ12P1 and L5 Indicates Lack of Specificity and Potency” (Cancer Biotherapy & Radiopharmaceuticals, 2019)
“Also recorded” adds a separate entry of the source. Like-named read-outs stand apart in the source and are kept apart here.

What was measured:
Solubility assays = type: physicochemical
Procedure: (§1) Solubility assays were performed to determine the most compatible solvent for both peptides before in vitro evaluation of GPC3 binding, favoring aqueous solvents over cytotoxic organic solvents such as dimethylformamide (DMF) and dimethyl sulfoxide (DMSO).
FIG. 1. Cy5.5-conjugated TJ12P1 is peptide insoluble in aqueous buffer. Bright field images of Cy5.5-TJ12P1 peptides in solution. In (A, B), peptide Cy5.5-TJ12P1 is undissolved in 20% DMSO/80% ddH2O and 100% ddH2O at 0.3 mg/mL, respectively. DMSO, dimethyl sulfoxide.

[1] = tested on: G1, HepG2, and A431 cells; test: Flow cytometry, binding compared across A431, G1 and HepG2 cells; type: cell-based, human; details: 1 h, n = 3
Procedure: (§2) A431, a human epidermoid carcinoma GPC3^− cell line, and A431-GPC3^+ (G1), a transfected A431 cell line engineered to stably express human GPC3, were both obtained from Dr. M.H. (National Cancer Institute, Bethesda, MD).[12] HepG2 (GPC3^+ liver cancer cell line) was obtained from ATCC (Manassas, VA). All cell lines were cultured in DMEM (Life Technologies, Carlsbad, CA) supplemented with 10% FetaPlex (Gemini Bio-Products, West Sacramento, CA) according to supplier's protocols. All cell lines tested negative for mycoplasma in monthly tests and were used for experiments within 10 passages (HepG2) or 15 passages (A431 and G1).
(§3) Approximately 1 × 10^6 cells per sample tube were harvested, washed once with ice-cold staining buffer (1% bovine serum albumin in 1 × phosphate buffered saline [PBS]), and resuspended in 60 μL staining buffer. Cells were then distributed into control and experimental vials. Unstained and single-color control samples were made. Experimental samples were stained with PE-conjugated anti-GPC3 antibody (R&D Systems, Minneapolis, MN), PE-conjugated IgG2 isotype control (Biolegend, San Diego, CA), conjugated specific or nonspecific peptide and incubated for 1–2 h on ice in the dark. Data were collected using a BD FACSCalibur cytometer running BD CellQuest Pro software (v6.0), and results were analyzed with FlowJo (v10.4.2). All experiments represent biological replicates (n = 3).

HepG2 cells = test: Flow cytometry, HepG2 (GPC3-positive) cells; type: cell-based; details: 300 nM, 1 h, n = 3
Procedure: as §2
as §3, with “All experiments represent biological replicates (n = 3).” left out

[2] = target: Glypican 3 (Homo sapiens) (UniProt P51654); details: cited from earlier work
Chain of Glypican 3 (Homo sapiens) (P51654 359-554): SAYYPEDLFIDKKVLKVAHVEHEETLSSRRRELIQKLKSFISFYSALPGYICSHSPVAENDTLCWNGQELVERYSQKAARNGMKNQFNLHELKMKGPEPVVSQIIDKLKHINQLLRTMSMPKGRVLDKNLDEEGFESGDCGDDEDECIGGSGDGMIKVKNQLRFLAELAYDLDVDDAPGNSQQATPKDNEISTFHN

[3] = target: Glypican 3 (Homo sapiens) (UniProt P51654); test: surface plasmon resonance; details: cited from earlier work
GPC3 [4] = test: Cell-based and cell-free GPC3 binding assays, overall result; design: species or system human; details: for binding to GPC3 (overall): fluorescently labeled and unlabeled versions, concentrations in the range of their published KD (0.3–1 μM); for specific binding (overall): concentrations in the range of their reported KD; for selectivity for GPC3 (overall): concentrations near the reported KD
Procedure: as §3
(§4) Biotinylated human GPC3 protein (Acro Biosystems, Newark, DE) was diluted to 5 μg/mL in assay buffer (1 × PBS with 0.02% Tween-20) in a 96-well plate and loaded onto streptavidin biosensors (FortéBio, Menlo Park, CA). Each unconjugated peptide was diluted in assay buffer at four concentrations (1000, 500, 250, and 125 nM for TJ12P1; and 500, 250, 125, and 62.5 nM for KKK-L5) and loaded into the 96-well plate in a final volume of 200 μL. Specific and nonspecific binding wells were made for each concentration. The plate was run on an Octet Red96 system (FortéBio) and analyzed with FortéBio Octet Data Analysis software (v.11).

[5] = Hydrophobic residue content
[6] = cited from earlier work
Procedure: as §1, with “(DMSO). […] Sonication and vortexin ... || This study has a few limitations.” for “(DMSO).”

human GPC3 = target: T1, human GPC3 (Homo sapiens, UniProt P51654); test: Biolayer interferometry to immobilized recombinant biotinylated GPC3; type: binding; details: unlabeled peptide, 1 × PBS with 0.02% Tween-20
T1 construct: biotin (biotinylated); purchased Acro Biosystems
T1 sequence (P51654 25-580): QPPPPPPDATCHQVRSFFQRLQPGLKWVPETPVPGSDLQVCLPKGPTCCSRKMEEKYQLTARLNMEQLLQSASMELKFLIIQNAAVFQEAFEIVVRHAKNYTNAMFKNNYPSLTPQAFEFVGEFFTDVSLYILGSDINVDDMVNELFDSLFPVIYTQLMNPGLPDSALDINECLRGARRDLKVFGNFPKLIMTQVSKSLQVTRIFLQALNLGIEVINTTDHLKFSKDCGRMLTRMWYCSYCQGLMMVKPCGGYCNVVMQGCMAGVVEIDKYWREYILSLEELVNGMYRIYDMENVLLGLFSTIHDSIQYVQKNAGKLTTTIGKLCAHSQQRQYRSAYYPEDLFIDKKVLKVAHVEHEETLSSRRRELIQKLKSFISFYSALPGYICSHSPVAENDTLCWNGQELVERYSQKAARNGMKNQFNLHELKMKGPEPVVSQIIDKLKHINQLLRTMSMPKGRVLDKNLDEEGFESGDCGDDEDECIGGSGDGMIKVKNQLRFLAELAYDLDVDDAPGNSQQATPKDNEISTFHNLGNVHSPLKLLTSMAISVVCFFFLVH
Procedure: as §4

GPC3 [7] = details: cited from earlier work
Text: Table 1. […] Several full-length antibodies, antibody fragments, and peptides for imaging and/or therapeutic use have been developed for GPC3 with varying degrees of success (Table 1).[8–17] […] To rule out the possibility that fluorophore modification of TJ12P1 interfered with its abil ... || (+ 2 further places)

## Sulfo-Cy5-DHLASLWWGTEL [sulfo-Cy5-TJ12P1, sulfo-Cy5-labeled variant of TJ12P1]
Solubility assays; 0.15 M NH4OAc
  solubility: appeared to be soluble
[1]; 325 nM, flow cytometry
  binding, G1 vs HepG2 vs A431: no significant difference in binding between G1, HepG2, and A431 cells; also recorded: nonspecific association of TJ12P1 to all cell lines

## Sulfo-Cy5-KKKYTRFLGTVGNRLTQ [sulfo-Cy5-KKK-L5 scramble, sulfo-Cy5-labeled scrambled variant of KKK-L5]
HepG2 cells; high-staining HepG2 population (Hi), p < 0.001
  difference in staining compared to sulfo-Cy5-KKK-L5: statistically significant
HepG2 cells; low-staining HepG2 population (Lo), p < 0.005
  difference in staining compared to sulfo-Cy5-KKK-L5: statistically significant
[1]; 300 nM, all three cell lines, p < 0.05
  binding (MFI) compared to specific peptide (sulfo-Cy5-KKK-L5): more binding; also recorded: binds better to all cell lines than the specific peptide

## TJ12P1
[2]
  Kd: 390 nM

## WLSHLGDLTWEA [TJ12P1 scramble, scrambled variant of TJ12P1, nonspecific control]
[1]; 325 nM, all cell lines tested, p < 0.05
  binding (MFI) compared to specific peptide (sulfo-Cy5-TJ12P1): more binding to all cell lines tested

## L5
[3]
  Kd: 44.7 nM

## Sulfo-Cy5-WLSHLGDLTWEA [sulfo-Cy5-TJ12P1 scrambled peptide, sulfo-Cy5-labeled scrambled variant of TJ12P1]
[1]; 325 nM, all GPC3+ cell lines (G1, HepG2), flow cytometry, p = 0.02
  binding compared to sulfo-Cy5-TJ12P1: significantly increased binding in all GPC3^+ cell lines

## RLNVGGTYFLTTRQ [L5, previously published GPC3-targeting peptide; original L5 not evaluated in this study, reference compound]
GPC3 [4]
  binding to GPC3 (overall): neither fluorescently labeled nor unlabeled versions tested can bind to GPC3
Solubility assays; aqueous solution
  solubility: poor solubility in aqueous solutions
[5]; four out of the 14 residues
  hydrophobic residues, share of sequence: 28.5%
[5]; out of the 14 residues
  hydrophobic residues, number: Four
[6]; original L5 peptide, as reported in literature
  solubility: poor solubility

## KKK-RLNVGGTYFLTTRQ [KKK-L5, variant of the L5 peptide with three lysine residues]
GPC3 [4]
  specific binding (overall): do not bind specifically
  selectivity for GPC3 (overall): neither TJ12P1 nor L5 variant demonstrates selectivity for GPC3
Solubility assays; ddH2O, 0.5 mg/mL
  solubility: soluble in ddH2O
Human GPC3; 62.5–500 nM
  KD by BLI: no KD could be calculated
Human GPC3; 62.5–500 nM, recombinant biotinylated human GPC3 on streptavidin biosensors
  BLI binding to GPC3: absence of specific binding to GPC3; also recorded: failed to demonstrate concentration-dependent binding behavior
[6]; aqueous solution, compared to the original L5 peptide, ref [23] (Han et al.)
  solubility: higher solubility in aqueous solution

## DHLASLWWGTEL [TJ12P1]
GPC3 [4]
  specific binding (overall): do not bind specifically
  selectivity for GPC3 (overall): neither TJ12P1 nor L5 variant demonstrates selectivity for GPC3
  binding to GPC3 (overall): neither fluorescently labeled nor unlabeled versions tested can bind to GPC3
Solubility assays; aqueous solution
  solubility: poor solubility in aqueous solution
Solubility assays; aqueous solution, record 2
  solubility: poor solubility in aqueous solutions
Human GPC3; 125–1000 nM
  KD by BLI: no KD could be calculated
Human GPC3; 125–1000 nM, recombinant biotinylated human GPC3 on streptavidin biosensors
  BLI concentration-dependent binding to GPC3: failed to demonstrate concentration-dependent binding behavior
GPC3 [7]; with Cy5.5, ref [9] (Zhu et al.)
  Kd: 390 nM

## Sulfo-Cy5-KKKRLNVGGTYFLTTRQ [sulfo-Cy5-KKK-L5, sulfo-Cy5-conjugated KKK-L5]
Solubility assays; ddH2O, 0.5 mg/mL
  solubility: soluble in ddH2O
[1]; 300 nM, flow cytometry
  binding, A431 vs HepG2 and G1 (histogram shift): bound nonspecifically to GPC3, as the observed histogram shift is identical in the A431 (GPC3^−) and the HepG2 and G1 (GPC3^+) cells

## hGC33: published anti-GPC3 targeting moiety, humanized
GPC3 [7]; humanized: Yes, ref [16]
  Kd: 0.67 nM
